Data as given in patent US12581252B2, “Substituted pyrrolo[3,4-b]pyridines as PI3K-α inhibitors” (Relay Therapeutics, Inc., priority 2020, dated 2026).

Molecular target: H1047R PIK3CA enzyme (Homo sapiens, UniProt P42336, H1047R)
Test: ADP-Glo Biochemical PIK3CA Kinase Assay

H1047R PIK3CA enzyme, sequence (P42336 whole entry H1047R): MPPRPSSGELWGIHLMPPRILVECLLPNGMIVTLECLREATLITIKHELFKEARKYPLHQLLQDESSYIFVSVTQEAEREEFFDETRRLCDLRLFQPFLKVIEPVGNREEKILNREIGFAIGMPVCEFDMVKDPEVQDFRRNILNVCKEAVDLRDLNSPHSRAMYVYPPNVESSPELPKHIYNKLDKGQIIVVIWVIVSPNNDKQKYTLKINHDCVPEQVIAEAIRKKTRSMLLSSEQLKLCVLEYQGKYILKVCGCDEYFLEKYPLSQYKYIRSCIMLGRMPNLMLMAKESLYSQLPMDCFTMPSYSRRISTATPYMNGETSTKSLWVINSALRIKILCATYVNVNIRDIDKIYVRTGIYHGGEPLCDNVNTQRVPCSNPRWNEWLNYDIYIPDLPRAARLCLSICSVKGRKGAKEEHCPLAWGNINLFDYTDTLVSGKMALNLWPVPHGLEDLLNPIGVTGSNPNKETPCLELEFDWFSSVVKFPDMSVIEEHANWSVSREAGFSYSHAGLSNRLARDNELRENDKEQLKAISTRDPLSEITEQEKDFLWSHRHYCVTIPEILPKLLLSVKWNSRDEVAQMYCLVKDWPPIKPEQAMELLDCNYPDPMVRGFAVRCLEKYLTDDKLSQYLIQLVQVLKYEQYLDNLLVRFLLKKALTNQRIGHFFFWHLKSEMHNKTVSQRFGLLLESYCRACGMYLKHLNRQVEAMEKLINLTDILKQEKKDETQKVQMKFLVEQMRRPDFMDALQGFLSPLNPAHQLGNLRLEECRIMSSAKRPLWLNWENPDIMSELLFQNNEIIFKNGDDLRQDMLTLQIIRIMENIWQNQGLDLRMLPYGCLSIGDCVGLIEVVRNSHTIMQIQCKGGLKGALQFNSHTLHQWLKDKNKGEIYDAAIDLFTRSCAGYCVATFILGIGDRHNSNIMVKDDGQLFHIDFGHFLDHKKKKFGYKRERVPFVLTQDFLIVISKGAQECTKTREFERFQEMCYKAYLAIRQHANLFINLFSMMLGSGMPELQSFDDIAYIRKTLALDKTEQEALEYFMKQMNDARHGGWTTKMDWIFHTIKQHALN
H1047R PIK3CA enzyme, sequence (P27986 whole entry partner): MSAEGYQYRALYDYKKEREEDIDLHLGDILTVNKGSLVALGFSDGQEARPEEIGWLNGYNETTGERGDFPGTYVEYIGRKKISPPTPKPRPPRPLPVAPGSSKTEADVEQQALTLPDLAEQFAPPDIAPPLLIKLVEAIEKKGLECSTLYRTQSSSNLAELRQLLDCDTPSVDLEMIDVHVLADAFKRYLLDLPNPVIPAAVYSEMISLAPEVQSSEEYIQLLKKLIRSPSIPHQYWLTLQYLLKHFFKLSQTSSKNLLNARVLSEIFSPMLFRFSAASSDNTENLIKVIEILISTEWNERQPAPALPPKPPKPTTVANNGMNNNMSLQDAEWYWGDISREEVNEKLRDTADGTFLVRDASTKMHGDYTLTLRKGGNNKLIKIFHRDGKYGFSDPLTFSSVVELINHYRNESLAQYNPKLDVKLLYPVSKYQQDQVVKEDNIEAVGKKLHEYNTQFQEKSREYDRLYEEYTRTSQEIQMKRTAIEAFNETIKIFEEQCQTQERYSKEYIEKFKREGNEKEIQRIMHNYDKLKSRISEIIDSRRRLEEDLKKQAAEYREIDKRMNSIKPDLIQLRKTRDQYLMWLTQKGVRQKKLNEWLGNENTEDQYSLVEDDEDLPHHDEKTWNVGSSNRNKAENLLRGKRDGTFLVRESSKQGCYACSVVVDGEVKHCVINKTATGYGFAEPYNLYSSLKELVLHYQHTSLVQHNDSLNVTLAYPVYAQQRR

| Compound | IC50 |
| --- | --- |
| O=C(Nc1cc(-c2ccc3ncnn3c2)nc2c1C(C1CCCCC1)NC2=O)c1cc(F)cc(C(F)(F)F)c1 (stereo not drawn) [Compound I-1607] | 500 to 1000 nM |
| O=C(Nc1cc(OC[C@@H]2CCO2)cc2c1[C@@H](c1cc(F)ccc1Cl)NC2=O)c1cc(F)cc(C(F)(F)F)c1 (single isomer, unassigned) [Compound I-1519] | 10000 to 100000 nM |
| Cc1ccccc1C1NC(=O)c2cccc(NC(=O)C34CCC(C3)c3ccccc34)c21 (stereo not drawn) [Compound I-226, N-(1-Oxo-3-(o-tolyl)isoindolin-4-yl)-1,2,3,4-tetrahydro-1,4-methanonaphthalene-1-carboxamide] | 1000 to 10000 nM |
| Cc1cc(=O)[nH]cc1C(=O)Nc1cc(Br)cc2c1[C@H](c1cc(F)ccc1Cl)NC2=O [Compound I-2108] | 10000 to 100000 nM |
| O=C1NC(c2cc(F)ccc2Cl)c2c(NCc3ccccc3)cc(Br)cc21 (stereo not drawn) [Compound I-1658] | 10000 to 100000 nM |
| Cc1ccccc1C1NC(=O)c2cccc(NC(=O)c3nnc4ccc(Cl)cn34)c21 (stereo not drawn) [Compound I-400] | 10000 to 100000 nM |
| Cc1ccccc1C1NC(=O)c2cccc(NC(=O)c3nsc4ccc(F)cc34)c21 (stereo not drawn) [Compound I-105] | 100 to 500 nM |
| O=C(Nc1ccnc2c1C(c1ccccc1Cl)NC2=O)c1ccnc2c1CCC2 (stereo not drawn) [Compound I-240] | 10000 to 100000 nM |
| NCCc1cc(NC(=O)N2C[C@@H](O)c3cc(F)ccc32)c2c(c1)C(=O)N[C@@H]2c1cc(F)ccc1Cl (single isomer, unassigned) [Compound I-2444] | 100 to 500 nM |
| Cc1ccccc1C1NC(=O)c2cccc(NC(=O)c3noc4ccccc34)c21 (stereo not drawn) [Compound I-41] | 10000 to 100000 nM |
| O=C1N[C@@H](c2cc(F)ccc2Cl)c2c(N[C@H]3CCOc4ccccc43)cc(-c3cnn(C(F)F)c3)nc21 (single isomer, unassigned) [Compound I-2160] | 10000 to 100000 nM |
| O=C1N[C@H](c2cc(F)ccc2Cl)c2c(NC(=O)N3C[C@](O)(C(F)(F)F)c4cc(F)ccc43)cc(-n3ccnn3)cc21 (single isomer, unassigned) [Compound I-2548] | 1000 to 10000 nM |
| N#CCn1ccnc1-c1cc(NC(=O)c2cc(F)cc(C(F)(F)F)c2)c2c(c1)C(=O)NC2c1cc(F)ccc1Cl (stereo not drawn) [Compound I-1454] | 100 to 500 nM |
| Cc1cc2nccnc2cc1-c1cc(NC(=O)c2cc(F)cc(C(F)(F)F)c2)c2c(c1)C(=O)NC2c1cc(F)ccc1Cl (stereo not drawn) [Compound I-975] | 100 to 500 nM |

Second part, the compound after the results:

| IC50 | Compound |
| --- | --- |
| ≤ 100 nM | O=C(Nc1cc(Br)cc2c1[C@H](c1cc(F)ccc1C(F)F)NC2=O)c1cc(F)cc(C(F)(F)F)c1 [Compound I-797] |
| ≤ 100 nM | O=C(Nc1cccc2c1[C@H](c1cc(F)ccc1C(F)F)NC2=O)c1cc(F)cc(C(F)(F)F)c1 [Compound I-170] |
| ≤ 100 nM | CC(=O)N1CC(c2cc(NC(=O)c3cc(F)cc(C(F)(F)F)c3)c3c(c2)C(=O)NC3c2cc(F)ccc2Cl)C1 (stereo not drawn) [Compound I-655] |
| ≤ 100 nM | O=C(Nc1cc(CC2CCO2)cc2c1C(c1cc(F)ccc1Cl)NC2=O)c1cc(F)cc(C(F)(F)F)c1 (stereo not drawn) [Compound I-1302] |
| 100 to 500 nM | COC1CN(c2cc(NC(=O)c3cc(F)cc(C(F)(F)F)c3)c3c(c2)C(=O)NC3c2cc(F)ccc2Cl)C1 (stereo not drawn) [Compound I-728] |
| ≤ 100 nM | O=C(Nc1cc(-c2ccc3ncc(F)n3c2)cc2c1C(c1cc(F)ccc1Cl)NC2=O)c1cc(F)cc(C(F)(F)F)c1 (stereo not drawn) [Compound I-1793] |
| ≤ 100 nM | O=C(Nc1cc(-c2ccn3cnnc3c2)cc2c1C(c1cc(F)ccc1Cl)NC2=O)c1cc(F)cc(C(F)(F)F)c1 (stereo not drawn) [Compound I-1501] |
| ≤ 100 nM | O=C(Nc1cc(-c2ccnc(C(F)F)c2)cc2c1[C@H](c1cc(F)ccc1Cl)NC2=O)c1cc(F)cc(C(F)(F)F)c1 [Compound I-2003] |
| ≤ 100 nM | CN1C[C@H](COc2cc(NC(=O)c3cc(F)cc(C(F)(F)F)c3)c3c(c2)C(=O)N[C@@H]3c2cc(F)ccc2Cl)CC1=O (single isomer, unassigned) [Compound I-1521] |
| ≤ 100 nM | O=C(Nc1cc(-c2ccc3nc(C(F)F)nn3c2)cc2c1[C@H](c1cc(F)ccc1Cl)NC2=O)c1cc(F)cc(C(F)(F)F)c1 [Compound I-1987] |
